Experimental data from patent US6387891B2, “COMPOUNDS WITH CHELATION AFFINITY AND SELECTIVITY FOR FIRST TRANSITION SERIES ELEMENTS AND THEIR USE IN COSMETICS AND PERSONAL CARE PRODUCTS, INHIBITION OF METALLOENZYMES, AND INHIBITION OF REPERFUSION INJURY” (Concat, Ltd., priority 2000, dated 2002).
Counter-ions that a name gives are not always drawn.

What was measured:
[1] = system: 57 human cancer cell lines; assay: In vitro proliferation of 57 human cancer cell lines; assay type: cell-based; conditions: cell line groups compared
Procedure: The ability of N-methyl-N′,N″-bis(dihydroxyphorylmethyl)-1,4,7-triazacyclononane to inhibit proliferation of 57 human cancer cell lines in vitro was evaluated employing published methods as published in J. Natl. Cancer Inst., 83:757-766, 1991. The concentration of agent that caused 50% inhibition of cell replication relative to controls [Gl50] were determined. In one set of experiments the mean midpoint of Gl50 for all cell lines tested was (10)^−4.72 with a delta value of (10)^2.95 and a range of (10)^3.67.

[2] = Chemical antioxidant properties, coupled oxidation of carotene and linoleic acid; assay type: physicochemical
Procedure: Antioxidant properties of N,N′,N″-tri(dihydroxyphosphoryl methyl)-1,4,7-triazacyclononane were evaluated employing the coupled oxidation of carotene and linoleic acid, using the method described in “Phenolic Antioxidants of Dried Soybeans,” Hammerschmidt, P. A., Praat, D. E., 1978, Journal of Food Sciences, vol. 43, pp. 556-559.

Trichophyton violaceum = assay: Inhibition of mycotic cell replication in vitro (MIC); assay type: cell-based
Procedure: (§1) N,N′,N″-tris(dihydroxyphosphorylmethyl)-1,4,7-triazacyclononane was prepared as described in Example 1C in U.S. Pat. No. 5,236,695. Studies were performed to determine its ability to inhibit growth of mycotic (fungal) organisms.
(§2) For Microsporum canis the minimum inhibitory concentration was 0.233 mM/L or less. For Candida albicans and Trichophyton rubrum the minimal inhibitory concentration was 2.33 mM/L. For Trichophyton mentagrophytes, Trichophyton tonsuras and Trichophyton violaceum the minimal inhibitory concentration was 23.3 mM/L.

Candida albicans = assay: as above; assay type: cell-based
Procedure: as §1, §2

Trichophyton rubrum = assay: as above; assay type: cell-based
Procedure: as §1, §2

[3] = system: Trichophyton mentagrophytes; assay: as above; assay type: cell-based
Procedure: as §1, §2

Microsporum canis = assay: as above; assay type: cell-based
Procedure: as §1, §2

Trichophyton tonsuras = assay: as above; assay type: cell-based
Procedure: as §1, §2

[4] = system: HFF cells (human foreskin fibroblasts); assay: Inhibition of mammalian cell replication in vitro; assay type: cell-based
Klebsiella pneumoniae = assay: Inhibition of bacterial replication in vitro (MIC); assay type: cell-based
Procedure: (§3) N,N′,N″-tris(dihydroxyphosphorylmethyl)-1,4,7-triazacyclononane was prepared as described in Example 1C in U.S. Pat. No. 5,236,695. Studies were performed to determine its ability to inhibit bacterial growth. For Streptococcus hemolyticus, Listeria monocytogenes, Enterobacter cloacae and Klebsiella pneumoniae the minimum inhibitory concentration was determined to be 0.15 mM/L. For Enterococcus fecalis, Pseudomonas aeruginosa and Acinobacter anitratus the minimum inhibitory concentration was determined to be 0.3 mM/L.

Acinobacter anitratus = assay: Inhibition of bacterial replication in vitro (MIC); assay type: cell-based
Procedure: as §3

[5] = system: Streptococcus hemolyticus; assay: Inhibition of bacterial replication in vitro (MIC); assay type: cell-based
Procedure: as §3

Enterobacter cloacae = assay: Inhibition of bacterial replication in vitro (MIC); assay type: cell-based
Procedure: as §3

Pseudomonas aeruginosa = assay: Inhibition of bacterial replication in vitro (MIC); assay type: cell-based
Procedure: as §3

Listeria monocytogenes = assay: Inhibition of bacterial replication in vitro (MIC); assay type: cell-based
Procedure: as §3

Enterococcus fecalis = assay: Inhibition of bacterial replication in vitro (MIC); assay type: cell-based
Procedure: as §3

[6] = system: mature, nonreplicating cultures of HFF (human foreskin fibroblasts); assay: Toxicity toward nonproliferating mammalian cells in vitro; assay type: cell-based; conditions: 0.3 mM, maintenance media, five-day period of observation
Streptococcus Sobrinus = assay: Inhibition of cariogenic bacteria (MIC, RPMI medium); assay type: cell-based; conditions: read-out: minimum inhibitory concentration (MIC)
Sprague Dawley rats = assay: Subacute toxicity, repeated intravenous doses in rats; assay type: in vivo; conditions: 0.05 millimoles per kg i.v. on 10 days
From the text: Ten male Sprague Dawley rats 29 days old and weighing between 73.4 and 87.8 grams at the beginning of the experiment were randomized, employing the block stratification method, into two groups consisting of five rats each. On each of days 1, 2, 3, 6, 7, 8, 9, 10, 13 and 14 of the experiment one set of rats received an intravenous dose of N,N′,N″-tri(dihydroxyphosphoryl methyl)-1,4,7-triazacyclononane (Example 1C in U.S. Pat. No. 5,236,695) equal to 0.05 millimoles per kg of initial body weight (experimental group) while the other group received an equivalent volume of normal saline solution. The weights of the animals were recorded three times per week and the animals were sacrificed on the 28th day, major organs removed and weighed and tissues removed for microscopic examination.

[7] = system: BGM cells (a continuous cell line of monkey origin); assay: Inhibition of mammalian cell replication in vitro; assay type: cell-based
Procedure: Concentrations of this ligand of 0.009 mM/L inhibited the growth of both BGM cells (a continuous cell line of monkey origin) and HFF cells (human foreskin fibroblasts).

[8] = target: T1, Matrix metalloproteinase-2 (MMP-2) secreted by cells (Homo sapiens, UniProt P08253); assay: MMP-2 inhibition after gel electrophoresis, incubation in developing medium; assay type: biochemical; conditions: MMP-2 band after gel electrophoresis
T1 construct: Matrix metalloproteinase-2 (MMP-2) secreted by cells into growth media; endogenous in cells
T1 sequence (P08253 110-660, species assumed): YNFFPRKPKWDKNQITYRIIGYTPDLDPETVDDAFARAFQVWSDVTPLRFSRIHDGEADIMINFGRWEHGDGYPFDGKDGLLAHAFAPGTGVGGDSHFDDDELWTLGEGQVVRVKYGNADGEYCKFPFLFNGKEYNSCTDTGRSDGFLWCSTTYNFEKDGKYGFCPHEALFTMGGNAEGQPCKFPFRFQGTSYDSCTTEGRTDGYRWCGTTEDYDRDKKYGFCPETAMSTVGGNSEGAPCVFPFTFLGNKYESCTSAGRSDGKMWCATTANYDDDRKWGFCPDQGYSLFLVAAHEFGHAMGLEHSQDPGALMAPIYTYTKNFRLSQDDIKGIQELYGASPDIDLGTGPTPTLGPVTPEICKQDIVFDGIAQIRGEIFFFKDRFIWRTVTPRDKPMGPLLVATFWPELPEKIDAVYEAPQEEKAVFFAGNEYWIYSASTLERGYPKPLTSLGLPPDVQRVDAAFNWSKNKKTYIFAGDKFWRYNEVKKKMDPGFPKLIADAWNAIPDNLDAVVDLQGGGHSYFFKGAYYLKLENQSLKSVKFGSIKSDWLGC
From the text: (§4) Matrix metalloproteinase-2 (MMP-2) secreted by cells into growth media was separated by gel electrophoresis into its distinct band. […] Concentrations of less than 10 microM of sodium salt of N,N′,N″-tri(dihydroxyphosphoryl methyl)-1,4,7-triazacyclononane inhibited monocyte penetration of Matrigel membranes.

[9] = system: isolated working rat heart; assay: Ischemic/reperfused isolated working rat heart model
Procedure: Using the ischemic/reperfused isolated working rat heart model of Ferdinandy et al., Cardiovasc. […] Concentrations of this agent as high as 7.2 mM had no adverse effects on the heart either before or after hypoxia/reperfusion injury.

[10] = Cytotoxicity study in AIDS antiviral screen (soluble-formazan assay); assay type: cell-based; conditions: human, T4 lymphocytes
Procedure: (§5) The antiviral efficacy of N,N′,N″-tris(5-t-butyl-2-hydroxy-benzyl)-1,4,7-triazacyclononane against the AIDS virus was evaluated employing published methodology (see, “New Soluble-Formazin Assay for HIV-1 Cytopathic Effects: Application to High Flux Screening of Synthetic and Natural Products for AIDS-Antiviral Activity,” J. Natl. Cancer Inst. 81:577-586, 1989).

AIDS virus = assay: Inhibition of AIDS virus replication (soluble-formazan assay for HIV-1 cytopathic effects); assay type: cell-based; conditions: Human immunodeficiency virus 1; read-out: EC50 (inhibition of the AIDS Virion)
Procedure: as §5

pure MMP-2 enzyme = pure MMP-2 enzyme (Homo sapiens, UniProt P08253); assay: Inhibition of pure MMP-2 enzyme; assay type: biochemical
Sequence of pure MMP-2 enzyme (P08253 110-660): as the sequence (P08253 110-660, species assumed) above

monocyte = assay: Monocyte penetration of Matrigel membranes; assay type: cell-based
From the text: as §4

underarm odor = assay: Inhibition of underarm odor in human subjects; assay type: in vivo
From the text: Human subjects applied a 30% aqueous solution of the neutral sodium salt of N,N′,N″-tri(dihydroxyphosphoryl methyl)-1,4,7-triazacyclononane in one axilla and a control aqueous solution in the other.

mice = assay: Acute intravenous toxicity in mice; assay type: in vivo; conditions: 4.0 mM/kg single intravenous dose
Procedure: (§6) This example illustrates the low in vivo toxicity of a representative ligand administer intravenously to mice.
(§7) This in vivo LD50 toxicity dose results in an instantaneous in vivo concentration which is orders of magnitude greater than the dose of this agent which inhibits mammalian cell replication in vitro (0.009 mM/L).

[11] = Acute intravenous toxicity in mice; assay type: in vivo; conditions: mouse, in vivo, 4 mM/kg, intravenous
Procedure: as §6, §7

CN1CCN(CP(=O)(O)O)CCN(CP(=O)(O)O)CC1 [N-methyl-N′,N″-bis(dihydroxyphorylmethyl)-1,4,7-triazacyclononane]
relative sensitivity of cancer cell groups [1]: leukemia and colon cancer cells were more sensitive to the agent than were other cancer cells

O=P(O)(O)CN1CCN(CP(=O)(O)O)CCN(CP(=O)(O)O)CC1 [N,N′,N″-tris(dihydroxyphosphorylmethyl)-1,4,7-triazacyclononane]
antioxidant activity [2]: antioxidant activity similar to the commonly used food antioxidant butylated hdryoxyanisole (BHA)
minimal inhibitory concentration (Trichophyton violaceum): 23.3 mM/L
minimal inhibitory concentration (Candida albicans): 2.33 mM/L
minimal inhibitory concentration (Trichophyton rubrum): 2.33 mM/L
minimal inhibitory concentration [3]: 23.3 mM/L
minimum inhibitory concentration (Microsporum canis): ≤ 0.233 mM/L
minimal inhibitory concentration (Trichophyton tonsuras): 23.3 mM/L
concentration that inhibited HFF cell growth [4]: 0.009 mM/L
minimum inhibitory concentration (Klebsiella pneumoniae): 0.15 mM/L
minimum inhibitory concentration (Acinobacter anitratus): 0.3 mM/L
minimum inhibitory concentration [5]: 0.15 mM/L
minimum inhibitory concentration (Enterobacter cloacae): 0.15 mM/L
minimum inhibitory concentration (Pseudomonas aeruginosa): 0.3 mM/L
minimum inhibitory concentration (Listeria monocytogenes): 0.15 mM/L
minimum inhibitory concentration (Enterococcus fecalis): 0.3 mM/L
effect on resting (nonreplicating) HFF cells [6]: no effect on the resting cells was observed
MIC (Streptococcus Sobrinus): < 20 µM
weight or rate of weight gain vs control (Sprague Dawley rats; injection and two-week post-injection period): no statistically significant difference in weight or rate of weight gain
microscopic examination of tissues vs control (Sprague Dawley rats; necropsy on 28th day): no differences between the tissues
weights of major organs vs control (Sprague Dawley rats; sacrificed on 28th day): no differences observed between the weights of major organs
concentration that inhibited BGM cell growth [7]: 0.009 mM/L

CCOC(=O)CN1CCN(CC(=O)OCC)CCN(CC(=O)OCC)CC1 [Example 1.3.6.13, N,N′,N″-Tris(ethoxycarbonylmethyl)-1,4,7-triazacyclononane]
concentration that inhibited HFF cell growth [4]: 0.16 mM/L
concentration that inhibited BGM cell growth [7]: 0.04 mM/L

salts of N,N′,N″-tri(dihydroxyphosphoryl methyl)-1,4,7-triazacyclononane
concentration that inhibited enzymatic action of MMP-2 [8]: less than 10 microM
concentration with no adverse effects on the heart ([9]; before or after hypoxia/reperfusion injury): ≥ 7200 µM
concentration in the perfusing medium effective in improving myocardial functional parameters and decreasing the incidence of ventricular fibrillation ([9]; ischemic/reperfused isolated working rat heart): ≤ 0.1 mM

O=C(O)CN(CCN(CC(=O)O)CC(=O)O)CCN(CC(=O)O)CC(=O)O [Diethylene triamine penta acetic acid, reference compound]
concentration that inhibited HFF cell growth [4]: 0.3 mM/L
concentration that inhibited BGM cell growth [7]: 0.075 mM/L

CC(C)(C)c1ccc(O)c(CN2CCN(Cc3cc(C(C)(C)C)ccc3O)CCN(Cc3cc(C(C)(C)C)ccc3O)CC2)c1 [N,N′,N″-tris(5-t-butyl-2-hydroxy-benzyl)-1,4,7-triazacyclononane]
IC50 [10]: 110 µM
EC50 (AIDS virus): 3 µM

O=C(O)CN1CCN(CC(=O)O)CCN(CC(=O)O)CC1 [Example 1.3.6.1, N,N′,N″-Tris(carboxymethyl)-1,4,7-triazacyclononane]
concentration that inhibited HFF cell growth [4]: 0.019 mM/L
concentration that inhibited BGM cell growth [7]: 0.009 mM/L

O=P(O)(O)CN1CCN(CP(=O)(O)O)CCN(CP(=O)(O)O)CC1 [sodium salt of N,N′,N″-tris-(dihydroxyphosphorylmethyl)-1,4,7-triazacyclononane]
IC50 (pure MMP-2 enzyme): < 10 µM
concentration that inhibited monocyte penetration of Matrigel membranes (monocyte): less than 10 microM
subjective evaluation of underarm odor (underarm odor; 30% aqueous solution in one axilla, control aqueous solution in the other): less underarm odor in the treated axilla than in the control
duration of decreased underarm odor after a single application (underarm odor; 30% aqueous solution, single application): up to one week
mice surviving for over 14 days (mice): Over 50%
LD50 [11]: > 4000 µmol/kg
